Experiment: xn = mol fraction of the nth substance listed

CC(=O)OCc1ccccc1 + CCc1ccccc1
viscosity [mPa·s], 101 kPa
Conditions	x1 = 0.0913	x1 = 0.176	x1 = 0.2732	x1 = 0.3687	x1 = 0.467	x1 = 0.5592	x1 = 0.6706	x1 = 0.7597	x1 = 0.8652	x1 = 0.9304
303.15 K	0.643	0.692	0.755	0.825	0.912	1.006	1.133	1.265	1.428	1.526
313.15 K	0.577	0.616	0.663	0.717	0.784	0.845	0.943	1.033	1.156	1.233

CCCCCCCCCCCCCCCC + C1CCCCC1
viscosity [mPa·s]
Conditions	298.15 K	323.15 K
100 kPa, x2 = 0.2	2.654	1.632
100 kPa, x2 = 0.4	2.239	1.399
100 kPa, x2 = 0.6	1.79	1.154
100 kPa, x2 = 0.8	1.326	0.8848
101.33 kPa, x1 = 0.0129	0.9348	–
101.33 kPa, x2 = 0.1809	2.717	–
101.33 kPa, x2 = 0.3339	2.395	–
101.33 kPa, x2 = 0.458	2.126	–
101.33 kPa, x2 = 0.557	1.892	–
101.33 kPa, x2 = 0.6415	1.709	–
101.33 kPa, x2 = 0.7087	1.549	–
101.33 kPa, x2 = 0.7738	1.39	–
101.33 kPa, x2 = 0.828	1.27	–
101.33 kPa, x2 = 0.8753	1.169	–
101.33 kPa, x2 = 0.9197	1.08	–
101.33 kPa, x2 = 0.9513	1.008	–

CCCCCCCCCCCCCCCC + CC(C)CC(C)(C)C
298.15 K
Conditions	viscosity [mPa·s]
101 kPa, x2 = 0.05562	2.82
101 kPa, x2 = 0.1311	2.55
101 kPa, x2 = 0.1971	2.371
101 kPa, x2 = 0.307	1.95
101 kPa, x2 = 0.4264	1.651
101 kPa, x2 = 0.5472	1.337
101 kPa, x2 = 0.6552	1.077
101 kPa, x2 = 0.7341	0.9214
101 kPa, x2 = 0.8043	0.7819
101 kPa, x2 = 0.8275	0.7495
101 kPa, x2 = 0.8768	0.6682
101 kPa, x2 = 0.929	0.5871
101 kPa, x2 = 0.9511	0.5441
101.33 kPa, x1 = 0.101	0.6392
101.33 kPa, x1 = 0.199	0.8143
101.33 kPa, x1 = 0.2987	1.014
101.33 kPa, x1 = 0.4006	1.24
101.33 kPa, x1 = 0.4999	1.489
101.33 kPa, x1 = 0.6004	1.765
101.33 kPa, x1 = 0.7002	2.062
101.33 kPa, x1 = 0.8003	2.391
101.33 kPa, x1 = 0.9001	2.72

ClC(Cl)Cl + CCCCCCCCCCO
viscosity [mPa·s], 101 kPa
Conditions	303.15 K	313.15 K
x1 = 0.0523	8.774	6.174
x1 = 0.1025	7.938	5.59
x1 = 0.1519	7.108	5.068
x1 = 0.1992	6.311	4.603
x1 = 0.2501	5.65	4.121
x1 = 0.2992	5.021	3.726
x1 = 0.3497	4.374	3.291
x1 = 0.4005	3.838	2.935
x1 = 0.451	3.293	2.571
x1 = 0.5	2.873	2.259
x1 = 0.5504	2.439	1.974
x1 = 0.5991	2.098	1.697
x1 = 0.6496	1.778	1.48
x1 = 0.699	1.501	1.251
x1 = 0.7508	1.277	1.076
x1 = 0.799	1.052	0.911
x1 = 0.8513	0.916	0.77
x1 = 0.8999	0.784	0.661
x1 = 0.9501	0.651	0.561

ClC(Cl)Cl + CCCCn1cc[n+](C)c1.F[B-](F)(F)F
298.15 K, 101 kPa
Conditions	viscosity [mPa·s]
x1 = 0.1079	92.5
x1 = 0.2033	73.3
x1 = 0.7028	9.24

CC(=O)OCc1ccccc1 + CCCCO
viscosity [mPa·s], 101.33 kPa
Conditions	x1 = 0.1023	x1 = 0.1976	x1 = 0.3075	x1 = 0.4014	x1 = 0.5022	x1 = 0.5973	x1 = 0.7048	x1 = 0.8005	x1 = 0.8914
293.15 K	2.803	2.748	2.685	2.633	2.578	2.527	2.471	2.422	2.376
303.15 K	2.224	2.18	2.129	2.087	2.043	2.002	1.957	1.918	1.881
313.15 K	1.66	1.641	1.619	1.6	1.581	1.562	1.542	1.524	1.507
323.15 K	1.104	1.116	1.131	1.144	1.158	1.172	1.187	1.201	1.214

O=C(O)CCl + Oc1ccccc1
323.15 K, 101 kPa
Conditions	viscosity [mPa·s]
x2 = 0.1128	3.125
x2 = 0.1918	3.113
x2 = 0.26	3.103
x2 = 0.3059	3.112
x2 = 0.405	3.121
x2 = 0.5113	3.142
x2 = 0.606	3.203
x2 = 0.6735	3.242
x2 = 0.7037	3.277
x2 = 0.7567	3.308
x2 = 0.8216	3.338
x2 = 0.903	3.353

CC(=O)OCc1ccccc1 + Cc1cccc(O)c1
313.15 K, 101.33 kPa
Conditions	viscosity [mPa·s]
x1 = 0.115	5.114
x1 = 0.272	3.917
x1 = 0.435	3.06
x1 = 0.62	2.337
x1 = 0.81	1.765

From the CheMixHub viscosity set
